Key:
BaF3-EGFR (WT) cells = experiment: Inhibitory activity on Ba/F3 cell proliferation (CellTiter-Glo, 72 hours); type: cell-based; conditions: Ba/F3 cells expressing EGFR WT
In short: (§1)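 Ba/F3 cells expressing wild-type EGFR or EGFR Del19/T790M/C797S, 3×10^3 per well, exposed 72 h at 37 °C to compound at 12 threefold dilutions, 0.00005-10 μM final. Viability by CellTiter-Glo 2.0; GI50 derived from growth relative to DMSO-treated cells.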

[1] = tested on: BaF3-EGFR (Del19/T790M/C797S) cells; experiment: as above; type: cell-based; conditions: Ba/F3 cells expressing EGFR Del19/T790M/C797S
In short: as §1

EGFR Del19/T790M/C797S = EGFR Del19/T790M/C797S (Homo sapiens, UniProt P00533, C797S/T790M, form not given); experiment: Enzyme IC50, EGFR Del19/T790M/C797S; type: biochemical
EGFR Del19/T790M/C797S, sequence (P00533 25-1210 T790M/C797S, form open): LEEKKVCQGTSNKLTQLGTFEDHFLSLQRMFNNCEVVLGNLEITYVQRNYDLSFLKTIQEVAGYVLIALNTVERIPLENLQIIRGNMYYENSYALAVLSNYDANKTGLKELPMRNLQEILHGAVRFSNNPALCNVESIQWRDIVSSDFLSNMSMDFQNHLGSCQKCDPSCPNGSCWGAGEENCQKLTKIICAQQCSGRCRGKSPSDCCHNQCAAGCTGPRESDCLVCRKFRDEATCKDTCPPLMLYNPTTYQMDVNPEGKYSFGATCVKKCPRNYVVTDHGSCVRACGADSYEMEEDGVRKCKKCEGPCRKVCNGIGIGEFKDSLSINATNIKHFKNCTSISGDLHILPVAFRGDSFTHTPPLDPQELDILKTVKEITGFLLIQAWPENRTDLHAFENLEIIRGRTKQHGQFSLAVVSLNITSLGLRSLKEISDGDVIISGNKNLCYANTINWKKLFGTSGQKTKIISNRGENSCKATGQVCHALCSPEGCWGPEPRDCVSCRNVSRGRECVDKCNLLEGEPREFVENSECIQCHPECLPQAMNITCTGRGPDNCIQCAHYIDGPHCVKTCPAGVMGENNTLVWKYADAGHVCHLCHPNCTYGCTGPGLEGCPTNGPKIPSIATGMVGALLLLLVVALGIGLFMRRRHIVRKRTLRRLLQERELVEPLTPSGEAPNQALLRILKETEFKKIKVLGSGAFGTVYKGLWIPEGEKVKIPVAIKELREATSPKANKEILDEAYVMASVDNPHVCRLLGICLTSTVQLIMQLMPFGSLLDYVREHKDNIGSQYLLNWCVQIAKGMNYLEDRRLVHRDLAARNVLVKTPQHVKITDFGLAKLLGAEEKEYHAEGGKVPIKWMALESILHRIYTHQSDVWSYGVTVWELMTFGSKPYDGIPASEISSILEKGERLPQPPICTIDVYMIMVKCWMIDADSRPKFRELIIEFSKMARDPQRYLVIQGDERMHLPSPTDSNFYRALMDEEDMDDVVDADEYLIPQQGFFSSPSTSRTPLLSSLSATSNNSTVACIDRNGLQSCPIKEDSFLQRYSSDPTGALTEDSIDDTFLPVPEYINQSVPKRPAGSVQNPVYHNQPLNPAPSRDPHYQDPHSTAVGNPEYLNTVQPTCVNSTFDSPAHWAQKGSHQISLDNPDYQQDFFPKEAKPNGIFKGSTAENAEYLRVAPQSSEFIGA

GI50 (BaF3-EGFR (WT) cells) [µM] | GI50 [1] [µM] | IC50 (EGFR Del19/T790M/C797S) [µM] | Compound
0.05 to 0.1 | > 0.1 | ≤ 0.05 | CP(C)(=O)c1c(Nc2nc(Nc3cc([N+](=O)[O-])c(N4CCC(N5CCN(C6CC6)CC5)CC4)c4c3OCCO4)nc3[nH]ccc23)ccc2nccnc12 [Example 134, (6-((2-((8-(4-(4-cyclopropyl-piperazin-1-yl)piperidin-1-yl)-7-nitro-2,3-dihydrobenzo [b][1,4]dioxin-5-yl)amino)-7H-pyrrolo[2,3-d]pyrimidin-4-yl)amino)quinoxalin-5-yl)dimethyl-phosphine oxide]
> 0.1 | ≤ 0.05 | ≤ 0.05 | COc1cc(N2CCN(C)CC2)c(-c2cnn(C(F)F)c2)cc1Nc1nc(Nc2ccc3nccnc3c2P(C)(C)=O)c2cc[nH]c2n1 [Example 50, (6-((2-((5-(1-(difluoromethyl)-1H-pyrazol-4-yl)-2-methoxy-4-(4-methyl-piperazin-1-yl)phenyl)amino)-7H-pyrrolo[2,3-d]pyrimidin-4-yl)amino)quinoxalin-5-yl)dimethyl-phosphine oxide]
> 0.1 | 0.05 to 0.1 | ≤ 0.05 | CCN1CCN(C2CCN(c3cc(OC)c(Nc4nc(Nc5ccc6nccnc6c5P(C)(C)=O)c5cc[nH]c5n4)cc3C)CC2)CC1 [Example 61, (6-((2-((4-(4-(4-ethylpiperazin-1-yl)piperidin-1-yl)-2-methoxy-5-methylphenyl)amino)-7H-pyrrolo[2,3-d]pyrimidin-4-yl)amino)quinoxalin-5-yl)dimethyl-phosphine oxide]
> 0.1 | ≤ 0.05 | ≤ 0.05 | COc1cc(OCCN(C)C)c(-c2cnn(C)c2)cc1Nc1nc(Nc2ccc3nccnc3c2P(C)(C)=O)c2cc[nH]c2n1 [Example 35, (6-((2-((4-(2-(dimethylamino)ethoxy)-2-methoxy-5-(1-methyl-1H-pyrazol-4-yl)phenyl)amino)-7H-pyrrolo[2,3-d]pyrimidin-4-yl)amino)quinoxalin-5-yl)dimethyl-phosphine oxide]
0.05 to 0.1 | ≤ 0.05 | ≤ 0.05 | COc1cc(N2CCN3CCCC[C@@H]3C2)c(-c2cnn(C)c2)cc1Nc1nc(Nc2ccc3nccnc3c2P(C)(C)=O)c2cc[nH]c2n1 [Example 43, (R)-(6-((2-((2-methoxy-5-(1-methyl-1H-pyrazol-4-yl)-4-(octahydro-2H-pyrido[1,2-alpyrazin)-2-yl)phenyl)amino)-7H-pyrrolo[2,3-d]pyrimidin-4-yl)amino)quinoxalin-5-yl)dimethyl-phosphine oxide]
> 0.1 | > 0.1 | ≤ 0.05 | Cc1cc(Nc2nc(Nc3ccc4nccnc4c3P(C)(C)=O)c3cc[nH]c3n2)c2c(c1N1CCOCC1)CCO2 [Example 122, dimethyl (6-((2-((5-methyl-4-morpholino-2,3-dihydrobenzo-furan-7-yl)amino)-7H-pyrrolo[2,3-d]pyrimidin-4-yl)amino)quinoxalin-5-yl)phosphine oxide]
> 0.1 | ≤ 0.05 | ≤ 0.05 | COc1cc(N(C)CCN(C)C)c(-c2cnn(C)c2)cc1Nc1nc(Nc2ccc3nccnc3c2P(C)(C)=O)c2cc[nH]c2n1 [Example 36, (6-((2-((4-((2-(dimethylamino)ethyl) (methyl)amino)-2-methoxy-5-(1-methyl-1H-pyrazol-4-yl)phenyl)amino)-7H-pyrrolo[2,3-d]pyrimidin-4-yl)amino)quinoxalin-5-yl)dimethyl-phosphine oxide]
> 0.1 | ≤ 0.05 | ≤ 0.05 | CCn1cc(-c2cc(Nc3nc(Nc4ccc5nccnc5c4P(C)(C)=O)c4cc[nH]c4n3)c(OC)cc2N2CCN(C)CC2)cn1 [Example 47, (6-((2-((5-(1-ethyl-1H-pyrazol-4-yl)-2-methoxy-4-(4-methyl-piperazin-1-yl)phenyl)amino)-7H-pyrrolo[2,3-d]pyrimidin-4-yl)amino)quinoxalin-5-yl)dimethyl-phosphine oxide]
> 0.1 | 0.05 to 0.1 | ≤ 0.05 | COc1cc(N2CCN(C)CC2)c(-c2cnn(C3CC3)c2)cc1Nc1nc(Nc2ccc3nccnc3c2P(C)(C)=O)c2cc[nH]c2n1 [Example 115, (6-((2-((5-(1-cyclopropyl-1H-pyrazol-4-yl)-2-methoxy-4-(4-methylpiperazin-1-yl)phenyl)amino)-7H-pyrrolo[2,3-d]pyrimidin-4-yl)amino)quinoxalin-5-yl)dimethyl-phosphine oxide]
> 0.1 | ≤ 0.05 | ≤ 0.05 | COc1cc(N2CCC3(CCN(CC4(F)CC4)CC3)CC2)c(-c2cnn(C)c2)cc1Nc1nc(Nc2ccc3nccnc3c2P(C)(C)=O)c2cc[nH]c2n1 [Example 114, (6-((2-((4-(9-((1-fluorocyclo-propyl)methyl)-3,9-diazaspiro[5.5]undecan-3-yl)-2-methoxy-5-(1-methyl-1H-pyrazol-4-yl)phenyl)amino)-7H-pyrrolo[2,3-d]pyrimidin-4-yl)amino)quinoxalin-5-yl)dimethyl-phosphine oxide]

The remaining lines, values behind:

Compound | GI50 (BaF3-EGFR (WT) cells) [µM] | GI50 [1] [µM] | IC50 (EGFR Del19/T790M/C797S) [µM]
CN1CCN(c2cc(OCC(F)(F)F)c(Nc3nc(Nc4ccc5nccnc5c4P(C)(C)=O)c4cc[nH]c4n3)cc2-c2cnn(C)c2)CC1 [Example 1, dimethyl (6-((2-((5-(1-methyl-1H-pyrazol-4-yl)-4-(4-methylpiperazin-1-yl)-2-(2,2,2-trifluoroethoxy)phenyl)amino)-7H-pyrrolo[2,3-d]pyrimidin-4-yl)amino)quinoxalin-5-yl)phosphine oxide] | > 0.1 | 0.05 to 0.1 | ≤ 0.05
COc1cc(F)c(-c2cnn(C)c2)cc1Nc1nc(Nc2ccc3nccnc3c2P(C)(C)=O)c2cc[nH]c2n1 [Example 31, (6-((2-((4-fluoro-2-methoxy-5-(1-methyl-1H-pyrazol-4-yl)phenyl)amino)-7H-pyrrolo[2,3-d]pyrimidin-4-yl)amino)quinoxalin-5-yl)dimethyl-phosphine oxide] | > 0.1 | > 0.1 | ≤ 0.05
COc1cc(N2CCN(C3CCCC3)CC2)c(-c2cnn(C)c2)cc1Nc1nc(Nc2ccc3nccnc3c2P(C)(C)=O)c2cc[nH]c2n1 [Example 22, (6-((2-((4-(4-cyclopentyl-piperazin-1-yl)-2-methoxy-5-(1-methyl-1H-pyrazol-4-yl)phenyl)amino)-7H-pyrrolo[2,3-d]pyrimidin-4-yl)amino)quinoxalin-5-yl) dimethyl-phosphine oxide] | > 0.1 | ≤ 0.05 | ≤ 0.05
Cn1cc(-c2cc(Nc3nc(Nc4ccc5nccnc5c4P(C)(C)=O)c4cc[nH]c4n3)c(OCC(F)(F)F)cc2N2CCOCC2)cn1 [Example 2, dimethyl (6-((2-((5-(1-methyl-1H-pyrazol-4-yl)-4-morpholino-2-(2,2,2-trifluoroethoxy)phenyl)amino)-7H-pyrrolo[2,3-d]pyrimidin-4-yl)amino)quinoxalin-5-yl) phosphine oxide] | > 0.1 | ≤ 0.05 | ≤ 0.05
Cn1cc(-c2cc(Nc3nc(Nc4ccc5nccnc5c4P(C)(C)=O)c4cc[nH]c4n3)ccc2N2CCOCC2)cn1 [Example 34, dimethyl (6-((2-((3-(1-methyl-1H-pyrazol-4-yl)-4-morpholino-phenyl)amino)-7H-pyrrolo[2,3-d]pyrimidin-4-yl)amino)quinoxalin-5-yl)phosphine oxide] | > 0.1 | ≤ 0.05 | ≤ 0.05
COc1cc(N2C[C@H]3C[C@@H]2CO3)c(-c2cnn(C)c2)cc1Nc1nc(Nc2ccc3nccnc3c2P(C)(C)=O)c2cc[nH]c2n1 [Example 27] | > 0.1 | ≤ 0.05 | ≤ 0.05
Cc1cc(Nc2nc(Nc3cnc4ccccc4c3P(C)(C)=O)c3cc[nH]c3n2)c(OCC(F)(F)F)cc1N1CCC(N2CCN(C)CC2)CC1 [Example 13, dimethyl (3-((2-((5-methyl-4-(4-(4-methylpiperazin-1-yl)piperidin-1-yl)-2-(2,2,2-trifluoroethoxy)phenyl)amino)-7H-pyrrolo[2,3-d]pyrimidin-4-yl)amino)quinolin-4-yl)phosphine oxide] | > 0.1 | > 0.1 | ≤ 0.05
COc1cc(N2CCOCC2)c(-c2cnn(C)c2)cc1Nc1nc(Nc2ccc3nccnc3c2P(C)(C)=O)c2cc[nH]c2n1 [Example 25, (6-((2-((2-methoxy-5-(1-methyl-1H-pyrazol-4-yl)-4-morpholino-phenyl)amino)-7H-pyrrolo[2,3-d]pyrimidin-4-yl)amino)quinoxalin-5-yl)dimethyl-phosphine oxide] | > 0.1 | ≤ 0.05 | ≤ 0.05
COc1cc(N2CCC3(CC2)COC3)c(-c2cnn(C)c2)cc1Nc1nc(Nc2ccc3nccnc3c2P(C)(C)=O)c2cc[nH]c2n1 [Example 32, (6-((2-((2-methoxy-5-(1-methyl-1H-pyrazol-4-yl)-4-(2-oxa-7-azaspiro[3.5]nonane-7-yl)phenyl)amino)-7H-pyrrolo[2,3-d]pyrimidin-4-yl)amino)quinoxalin-5-yl)dimethyl-phosphine oxide] | > 0.1 | ≤ 0.05 | ≤ 0.05
